Each structure is given as a SMILES string. Square brackets hold non-standard residues; d marks the D form. Peptide text beside a SMILES is read from it.

In patent US7060792B2, “Protection against ischemia and reperfusion injury” (University of Kentucky Research Foundation, priority 2000, dated 2006) one finds solubility data, which are given here for two compounds.

This series in a line: Solubility in water or saline. In kind it is physicochemical. From the text: One of the compounds is a heptapeptide having the sequence Tyr-D-Met-Phe-His-Leu-Met-Asp-NH2 SEQ ID NO:1, hereinafter referred to as deltorphin A. Another of the compounds is a thirteen amino acid sequence Tyr-D-Ala-Phe-Gly-Tyr-Pro-Ser-Gly-Glu-Ala-Lys-Lys-Ile SEQ ID NO:2. The peptides may be produced by a number of methods, such as using an automated peptide synthesizer, through recombinant molecular techniques, or isolated from a naturally occurring source, as is known to one skilled in the art. Deltorphin A SEQ ID NO:1 has a molecular weight of 955.1 daltons, and Dermorphin H SEQ ID NO:2 has a molecular weight of about 1430.64 daltons. […] The initial alkaline pH is adjusted to 7.4 with 1 N HCl.

For `CC[C@H](C)[C@H](NC(=O)[C@H](CCCCN)NC(=O)[C@H](CCCCN)NC(=O)[C@H](C)NC(=O)[C@H](CCC(=O)O)NC(=O)CNC(=O)[C@H](CO)NC(=O)[C@@H]1CCCN1C(=O)[C@H](Cc1ccc(O)cc1)NC(=O)CNC(=O)[C@H](Cc1ccccc1)NC(=O)[C@@H](C)NC(=O)[C@@H](N)Cc1ccc(O)cc1)C(=O)O` [Dermorphin H, Tyr-D-Ala-Phe-Gly-Tyr-Pro-Ser-Gly-Glu-Ala-Lys-Lys-Ile] (H-Y[dA]FGYPSGEAKKI-OH; N-terminus and C-terminus assumed), the solubility result was “insoluble in water or saline”.
With `CSCC[C@H](NC(=O)[C@H](CC(C)C)NC(=O)[C@H](Cc1cnc[nH]1)NC(=O)[C@H](Cc1ccccc1)NC(=O)[C@@H](CCSC)NC(=O)[C@@H](N)Cc1ccc(O)cc1)C(=O)N[C@@H](CC(=O)O)C(N)=O` [Deltorphin A, Tyr-D-Met-Phe-His-Leu-Met-Asp-NH2] (H-Y[dM]FHLMD-NH2) the entry was “insoluble in water or saline”.
